Data as given in US8309552B2, “Immunomodulating heterocyclic compounds” (Medigene AG, priority 2003, dated 2012).
Where two headings read alike, the source gives them in different places.

How the values were obtained:
[1] = test system: production of Interleukin-2 (IL-2) by Human Jurkat T Cells; experiment: Inhibition of production of interleukin-2 (IL-2) by human Jurkat T cells (Raji/Jurkat co-culture, anti-CD3, IL-2 ELISA); assay type: cell-based; details: read-out: Percentage Inhibition (relative to DMSO = 0%); for inhibition at 30 µM: Compound Concentration 30 μM; for inhibition at 10 µM: Compound Concentration 10 μM
Method: • Collins A V et al. (2002) Immunity 17, 201-210 “The interaction properties of costimulatory molecules revisited” Inhibition of Production of Interleukin-2 (IL-2) by Human Jurkat T Cells. Method
Human Raji cells were dispensed at a concentration of 2×10^5 cells per well in RPMI-1640 medium supplemented with 10% fetal calf serum, 1% penicillin/streptomycin, 1% glutamine (RPMI medium) in a 96-well round bottom microtitre plate. Compounds under investigation (dissolved in 100% DMSO) were diluted to eight-fold the desired final concentration in RPMI medium and added to the required final concentration for a total volume of 200 μl per well. After 20 minutes incubation at 37° C., Jurkat T cells were added at a concentration of 2×10^5 cells per well. Monoclonal antibody to CD3 (UCHT1, R&D Systems) was added to the cultures at a final concentration of 1 μg per ml, and where indicated, monoclonal antibody to CD28 (CD28.2, BD-Pharmingen) was also added at a concentration of 2.5 μg per ml. Cells were cultured at 37° C. for 5 hours, after which the plates were centrifuged and the supernatants harvested for IL-2 ELISA assay using the IL-2 Eli-pair kit (DIACLONE Research, Besancon, France) according to the manufacturers instructions.

CD80-CD28 interaction = molecular target: T1, CD80-CD28 interaction (Homo sapiens, UniProt P33681); experiment: Homogenous Time Resolved Fluorescence (HTRF) assay, cell free; assay type: binding; details: 4 hours at room temperature, read-out: Activity (EC50 in the HTRF assay)
T1 sequence (P33681 35-242 limits assumed): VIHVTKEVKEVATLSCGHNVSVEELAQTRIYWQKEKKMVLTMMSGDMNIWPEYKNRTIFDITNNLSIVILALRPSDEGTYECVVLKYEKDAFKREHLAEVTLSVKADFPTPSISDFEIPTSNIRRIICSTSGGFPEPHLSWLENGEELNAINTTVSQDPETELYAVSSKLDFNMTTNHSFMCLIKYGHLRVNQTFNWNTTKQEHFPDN
How it was run: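 Europium and APC labels were linked through antibodies to CD28 and CD80 fusion proteins. Compounds were tested at 100 μM-1.7 nM for 4 h at room temperature in 50 mM Tris-HCl, 150 mM NaCl pH7.8, 0.1% BSA. Emission read at 665 and 615 nm (excitation 340 nm); non-specific signal measured with C215 Fab in place of CD80; EC50 reported in bands.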

[2] = cell-free HTRF, compound concentration series 100 μM-1.7 nM
[3] = cell free HTRF assay, concentration series 100 μM-1.7 nM
[4] = cell-free HTRF, concentration series 100 μM-1.7 nM

SMILES	EC50 (CD80-CD28 interaction; [4]) [µM]	other results
CC(C)OCCCNC(=O)c1ccc(-n2[nH]c3c(nnc4ccccc43)c2=O)cc1 [Example 53]	–	inhibition at 30 µM [1]: 63.8%; EC50 (CD80-CD28 interaction; [2]): < 1 µM
CN1C(C)(C)CC(NC(=O)c2ccc(-n3[nH]c4c(nnc5ccccc54)c3=O)cc2)CC1(C)C [Example 68]	–	inhibition at 10 µM [1]: 71.7%; EC50 (CD80-CD28 interaction; [2]): < 1 µM
CCN1CCCC1CNC(=O)Nc1ccc(-n2[nH]c3c(nnc4ccccc43)c2=O)cc1 (stereo not drawn) [Example 162]	–	inhibition at 30 µM [1]: 54.4%; EC50 (CD80-CD28 interaction; [2]): < 1 µM
O=C(NCCCNC1CCCCC1)c1ccc(-n2[nH]c3c(nnc4c(F)cccc43)c2=O)cc1 [Example 235]	–	inhibition at 10 µM [1]: 59.3%; EC50 (CD80-CD28 interaction; [3]): < 1 µM
CN1CCC(NC(=O)c2ccc(-n3[nH]c4c(nnc5c(F)cccc54)c3=O)cc2)CC1 [Example 349]	–	inhibition at 10 µM [1]: 79.5%; EC50 (CD80-CD28 interaction; [3]): < 1 µM
O=C(NCCCN1CCOCC1)c1ccc(-n2[nH]c3c(nnc4c(F)cccc43)c2=O)cc1 [Example 350]	–	inhibition at 10 µM [1]: 74.2%; EC50 (CD80-CD28 interaction; [3]): < 1 µM
O=C(NC1CN2CCC1CC2)c1ccc(-n2[nH]c3c(nnc4c(F)cccc43)c2=O)cc1 (stereo not drawn) [Example 353]	–	inhibition at 10 µM [1]: 77.4%; EC50 (CD80-CD28 interaction; [3]): < 1 µM
O=C(NCC(F)F)c1ccc(-n2[nH]c3c(nnc4c(F)cccc43)c2=O)cc1 [Example 376]	–	inhibition at 10 µM [1]: 56.7%; EC50 (CD80-CD28 interaction; [3]): < 1 µM
O=C(NCCCNC1CCCCC1)c1ccc(-n2[nH]c3c(nnc4c(F)ccc(F)c43)c2=O)cc1 [Example 429]	–	inhibition at 10 µM [1]: 58.8%; EC50 (CD80-CD28 interaction; [3]): < 1 µM
CCCNCCCNC(=O)c1ccc(-n2[nH]c3c(nnc4c(F)cccc43)c2=O)cc1 [Example 442]	< 1	inhibition at 10 µM [1]: 58.9%
CCN1CCC(NC(=O)c2ccc(-n3[nH]c4c(nnc5c(F)cccc54)c3=O)cc2)CC1 [Example 453]	< 1	inhibition at 10 µM [1]: 55.7%
CC1CCN(CCCCNC(=O)c2ccc(-n3[nH]c4c(nnc5c(F)cccc54)c3=O)cc2)CC1 [Example 464]	< 1	–
CC1CCN(C(=O)c2ccc(-n3[nH]c4c(nnc5c(F)cccc54)c3=O)cc2)CC1 [Example 465]	< 1	–
CC1(C)CCCC(C)(C)N1CCCCNC(=O)c1ccc(-n2[nH]c3c(nnc4c(F)cccc43)c2=O)cc1 [Example 466]	< 1	–
O=C(NCC(F)(F)C(F)F)c1ccc(-n2[nH]c3c(nnc4c(F)cccc43)c2=O)cc1 [Example 467]	< 1	–
CCCN(CCCCNC(=O)c1ccc(-n2[nH]c3c(nnc4c(F)cccc43)c2=O)cc1)CC1CC1 [Example 468]	< 1	–
C=CCN(CCCCNC(=O)c1ccc(-n2[nH]c3c(nnc4c(F)cccc43)c2=O)cc1)C1CCCC1 [Example 469]	< 1	–
O=C(NCCCCN1CCC(C(F)(F)F)CC1)c1ccc(-n2[nH]c3c(nnc4c(F)cccc43)c2=O)cc1 [Example 470]	< 1	–
O=C(NC1CCN(CCCCF)CC1)c1ccc(-n2[nH]c3c(nnc4c(F)cccc43)c2=O)cc1 [Example 471]	< 1	–
CN(C)C1CCC(NC(=O)c2ccc(-n3[nH]c4c(nnc5c(F)cccc54)c3=O)cc2)CC1 (stereo not drawn) [Example 472]	< 1	inhibition at 10 µM [1]: 58.4%

SMILES	EC50 (CD80-CD28 interaction; [4]) [µM]	other results
C=CCN(CC=C)C(=O)c1ccc(-n2[nH]c3c(nnc4c(F)cccc43)c2=O)cc1 [Example 474]	1 to 10	–
CC(C)CN(CCCCNC(=O)c1ccc(-n2[nH]c3c(nnc4c(F)cccc43)c2=O)cc1)CC(C)C [Example 476]	< 1	–
CC1CC(C)CN(CCCCNC(=O)c2ccc(-n3[nH]c4c(nnc5c(F)cccc54)c3=O)cc2)C1 (stereo not drawn) [Example 477]	< 1	–
CN(CCCCNC(=O)c1ccc(-n2[nH]c3c(nnc4c(F)cccc43)c2=O)cc1)C(C)(C)C [Example 478]	< 1	inhibition at 10 µM [1]: 56%
CC(C)(C)NCCCCNC(=O)c1ccc(-n2[nH]c3c(nnc4c(F)cccc43)c2=O)cc1 [Example 479]	< 1	–
CCC(C)(C)NCCCCNC(=O)c1ccc(-n2[nH]c3c(nnc4c(F)cccc43)c2=O)cc1 [Example 480]	< 1	–
CC(C)(C)CNCCCCNC(=O)c1ccc(-n2[nH]c3c(nnc4c(F)cccc43)c2=O)cc1 [Example 481]	< 1	–
N#CCNC(=O)c1ccc(-n2[nH]c3c(nnc4c(F)cccc43)c2=O)cc1 [Example 482]	< 1	inhibition at 10 µM [1]: 39.2%
C=CCCN1CCC(NC(=O)c2ccc(-n3[nH]c4c(nnc5c(F)cccc54)c3=O)cc2)CC1 [Example 483]	< 1	–
O=C(NC1CCN(CCC(F)=C(F)F)CC1)c1ccc(-n2[nH]c3c(nnc4c(F)cccc43)c2=O)cc1 [Example 484]	< 1	–
O=C(NCCCC(F)F)c1ccc(-n2[nH]c3c(nnc4c(F)cccc43)c2=O)cc1 [Example 485]	< 1	–
N#CCCNC(=O)c1ccc(-n2[nH]c3c(nnc4c(F)cccc43)c2=O)cc1 [Example 486]	< 1	–
O=C(NC(CO)(CO)CO)c1ccc(-n2[nH]c3c(nnc4c(F)cccc43)c2=O)cc1 [Example 487]	< 1	–
O=C(NC1CCNC1)c1ccc(-n2[nH]c3c(nnc4c(F)cccc43)c2=O)cc1 (stereo not drawn) [Example 488]	< 1	–
CN1CCCN(C(=O)c2ccc(-n3[nH]c4c(nnc5c(F)cccc54)c3=O)cc2)CC1 [Example 489]	< 1	–
O=C(c1ccc(-n2[nH]c3c(nnc4c(F)cccc43)c2=O)cc1)N1CCCNCC1 [Example 490]	< 1	–
NC(=O)CNC(=O)c1ccc(-n2[nH]c3c(nnc4c(F)cccc43)c2=O)cc1 [Example 491]	< 1	–
O=C(NC1CCC(=C(F)F)CC1)c1ccc(-n2[nH]c3c(nnc4c(F)cccc43)c2=O)cc1 (stereo not drawn) [Example 492]	< 1	–
CC(F)CCNC(=O)c1ccc(-n2[nH]c3c(nnc4c(F)cccc43)c2=O)cc1 (stereo not drawn) [Example 493]	< 1	–
CC(C)C(C)(C#N)NC(=O)c1ccc(-n2[nH]c3c(nnc4c(F)cccc43)c2=O)cc1 (stereo not drawn) [Example 498]	< 1	–

SMILES	EC50 (CD80-CD28 interaction; [4]) [µM]	other results
NC1CCCC(NC(=O)c2ccc(-n3[nH]c4c(nnc5c(F)cccc54)c3=O)cc2)C1 (stereo not drawn) [Example 499]	< 1	–
O=C(NCC(F)F)c1ccc(-n2[nH]c3c(nnc4c(F)ccc(F)c43)c2=O)cc1 [Example 500]	< 1	–
O=C(N[C@H]1CC[C@H](O)CC1)c1ccc(-n2[nH]c3c(nnc4c(F)cccc43)c2=O)cc1 [Example 501]	< 1	–
CC(O)CCNC(=O)c1ccc(-n2[nH]c3c(nnc4c(F)cccc43)c2=O)cc1 (stereo not drawn) [Example 502]	< 1	–
O=C(NCC1CCCCCC1O)c1ccc(-n2[nH]c3c(nnc4c(F)cccc43)c2=O)cc1 (stereo not drawn) [Example 503]	1 to 10	–
O=C(NCC1CCCCC1O)c1ccc(-n2[nH]c3c(nnc4c(F)cccc43)c2=O)cc1 (stereo not drawn) [Example 504]	1 to 10	–
O=C(NCCNCCO)c1ccc(-n2[nH]c3c(nnc4c(F)cccc43)c2=O)cc1 [Example 505]	< 1	–
O=C(NCC1CCCCCCC1O)c1ccc(-n2[nH]c3c(nnc4c(F)cccc43)c2=O)cc1 (stereo not drawn) [Example 506]	1 to 10	–
O=C(NC(CO)CO)c1ccc(-n2[nH]c3c(nnc4c(F)cccc43)c2=O)cc1 [Example 507]	< 1	–
CC(CO)NC(=O)c1ccc(-n2[nH]c3c(nnc4c(F)cccc43)c2=O)cc1 (stereo not drawn) [Example 508]	< 1	–
CCC(CO)NC(=O)c1ccc(-n2[nH]c3c(nnc4c(F)cccc43)c2=O)cc1 (stereo not drawn) [Example 509]	< 1	–
O=C(N[C@H]1c2ccccc2C[C@H]1O)c1ccc(-n2[nH]c3c(nnc4c(F)cccc43)c2=O)cc1 [Example 510]	1 to 10	–
O=C(NC(CO)Cc1ccc(O)cc1)c1ccc(-n2[nH]c3c(nnc4c(F)cccc43)c2=O)cc1 (stereo not drawn) [Example 511]	1 to 10	–
O=C(N[C@@H](CO)[C@@H](O)c1ccccc1)c1ccc(-n2[nH]c3c(nnc4c(F)cccc43)c2=O)cc1 [Example 513]	1 to 10	–
O=C(NC(CO)Cc1ccccc1)c1ccc(-n2[nH]c3c(nnc4c(F)cccc43)c2=O)cc1 (stereo not drawn) [Example 514]	< 1	–
O=C(NC(CO)Cc1c[nH]c2ccccc12)c1ccc(-n2[nH]c3c(nnc4c(F)cccc43)c2=O)cc1 (stereo not drawn) [Example 515]	1 to 10	–
CC(C)(CO)NC(=O)c1ccc(-n2[nH]c3c(nnc4c(F)cccc43)c2=O)cc1 [Example 516]	> 10	–
CC(CO)(CO)NC(=O)c1ccc(-n2[nH]c3c(nnc4c(F)cccc43)c2=O)cc1 [Example 517]	< 1	–
